Test results taken from patent publication US8497245B2, “Trypsin-like serine protease inhibitors, their preparation and use as selective inhibitors of the clotting factors IIa and Xa” (The Medicines Company (Leipzig) GmbH, priority 2010, dated 2013).

Molecular target: T1, Human plasma kallikrein (h PK) (Homo sapiens, UniProt P03952)
T1 construct: purchased Enzyme Research Laboratories
Assay: Inhibition of human plasma kallikrein (reference enzyme)
Type: biochemical
Conditions: S2302 substrate
Procedure: (§1) The inhibitory effect against the individual purified enzymes was determined in analogy to a previously disclosed method (Stürzebecher et al., J. Med. Chem., 40, 3091-3099 (1997)).
(§2) The release of p-nitroaniline (p-NA, the chromogenic product of the proteolytic activity), was determined by change in absorbance at 405 nm. The equilibrium rates were used to calculate the inhibitor/enzyme dissociation constant (Ki values) by parameter fitting in accordance with the rate equation for competitive inhibition using GraFit (version 4 from Erithacus). The results are reported as Ki values (nanomolar) in table 7 and are the average of at least three determinations.
(§3) Dissociation constants were calculated as described herein.

T1 sequence (P03952 391-638 limits assumed): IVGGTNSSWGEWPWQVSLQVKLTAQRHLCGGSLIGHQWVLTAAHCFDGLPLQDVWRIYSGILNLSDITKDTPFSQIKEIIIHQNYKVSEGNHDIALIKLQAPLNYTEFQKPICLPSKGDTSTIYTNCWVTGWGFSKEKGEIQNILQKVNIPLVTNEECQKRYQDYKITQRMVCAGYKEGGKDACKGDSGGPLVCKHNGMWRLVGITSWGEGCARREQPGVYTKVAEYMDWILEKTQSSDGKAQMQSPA
T1 sequence (P03952 20-390 partner limits assumed): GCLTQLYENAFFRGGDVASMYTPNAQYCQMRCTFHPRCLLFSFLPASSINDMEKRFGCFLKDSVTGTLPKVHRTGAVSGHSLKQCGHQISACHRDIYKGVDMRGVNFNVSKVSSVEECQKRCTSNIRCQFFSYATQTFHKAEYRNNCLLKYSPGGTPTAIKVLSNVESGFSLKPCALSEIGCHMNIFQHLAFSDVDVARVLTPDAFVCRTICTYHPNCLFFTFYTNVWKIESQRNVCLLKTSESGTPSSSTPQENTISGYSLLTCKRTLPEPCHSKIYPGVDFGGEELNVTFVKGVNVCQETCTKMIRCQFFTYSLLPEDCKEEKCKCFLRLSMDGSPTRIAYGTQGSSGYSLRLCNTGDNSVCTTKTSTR

Compound	Ki [µM]
NCc1ccc(Cl)cc1CNC(=O)[C@@H]1CCCN1C(=O)[C@@H](CC(=O)N1CC[C@@H](N)C1)NS(=O)(=O)Cc1ccccc1 [Compound 2.11]	3.35
NCc1ccc(Cl)cc1CNC(=O)[C@@H]1CCCN1C(=O)[C@@H](CC(=O)N1CC[C@H](N)C1)NS(=O)(=O)Cc1ccccc1 [Compound 2.12]	1.69
NCc1ccc(Cl)cc1CNC(=O)[C@@H]1CNCCN1C(=O)[C@@H](CC(=O)N1CCCCC1)NS(=O)(=O)Cc1ccccc1 [Compound 2.13]	8.56

Molecular target: T2, Human urokinase type plasminogen activator (h u-PA) (Homo sapiens, UniProt P00749)
T2 construct: purchased MEDAC GmbH Urokinase HS medac
Assay: Inhibition of human urokinase type plasminogen activator (reference enzyme)
Type: biochemical
Conditions: H-Glu-Gly-Arg-pNA substrate
Procedure: as §1, §2, §3

Compound	Ki [µM]
NCc1ccc(Cl)cc1CNC(=O)[C@@H]1CCCN1C(=O)[C@@H](CC(=O)N1CC[C@@H](N)C1)NS(=O)(=O)Cc1ccccc1 [Compound 2.11]	> 20
NCc1ccc(Cl)cc1CNC(=O)[C@@H]1CCCN1C(=O)[C@@H](CC(=O)N1CC[C@H](N)C1)NS(=O)(=O)Cc1ccccc1 [Compound 2.12]	> 50
NCc1ccc(Cl)cc1CNC(=O)[C@@H]1CNCCN1C(=O)[C@@H](CC(=O)N1CCCCC1)NS(=O)(=O)Cc1ccccc1 [Compound 2.13]	> 100

Molecular target: T3, Human plasmin (h plasmin) (Homo sapiens, UniProt P00747)
T3 construct: purchased Calbiochem
T3 sequence (P00747 581-810 limits assumed): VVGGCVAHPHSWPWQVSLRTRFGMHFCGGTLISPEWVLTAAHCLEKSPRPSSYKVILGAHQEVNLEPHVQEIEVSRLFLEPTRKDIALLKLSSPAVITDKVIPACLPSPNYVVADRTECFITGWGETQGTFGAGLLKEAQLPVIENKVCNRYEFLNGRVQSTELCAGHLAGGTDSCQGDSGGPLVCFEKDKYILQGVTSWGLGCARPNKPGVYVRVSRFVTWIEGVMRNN
T3 sequence (P00747 97-580 partner limits assumed): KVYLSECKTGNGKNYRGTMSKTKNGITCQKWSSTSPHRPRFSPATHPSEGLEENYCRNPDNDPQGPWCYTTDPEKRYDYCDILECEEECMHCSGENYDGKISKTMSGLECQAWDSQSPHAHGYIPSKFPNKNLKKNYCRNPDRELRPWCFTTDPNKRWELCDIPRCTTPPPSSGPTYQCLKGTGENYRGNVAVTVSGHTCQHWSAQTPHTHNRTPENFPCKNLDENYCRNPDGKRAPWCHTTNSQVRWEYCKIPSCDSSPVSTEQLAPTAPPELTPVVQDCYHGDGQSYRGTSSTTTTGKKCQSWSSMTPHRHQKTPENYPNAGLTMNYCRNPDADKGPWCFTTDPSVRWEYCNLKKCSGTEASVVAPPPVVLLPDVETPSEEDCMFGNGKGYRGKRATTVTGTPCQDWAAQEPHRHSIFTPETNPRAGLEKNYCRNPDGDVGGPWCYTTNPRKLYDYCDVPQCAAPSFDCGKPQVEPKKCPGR
Assay: Inhibition of human plasmin (reference enzyme)
Type: biochemical
Conditions: Chromozym PL substrate
Procedure: as §1, §2, §3

Compound	Ki [µM]
NCc1ccc(Cl)cc1CNC(=O)[C@@H]1CCCN1C(=O)[C@@H](CC(=O)N1CC[C@@H](N)C1)NS(=O)(=O)Cc1ccccc1 [Compound 2.11]	> 100
NCc1ccc(Cl)cc1CNC(=O)[C@@H]1CCCN1C(=O)[C@@H](CC(=O)N1CC[C@H](N)C1)NS(=O)(=O)Cc1ccccc1 [Compound 2.12]	> 25
NCc1ccc(Cl)cc1CNC(=O)[C@@H]1CNCCN1C(=O)[C@@H](CC(=O)N1CCCCC1)NS(=O)(=O)Cc1ccccc1 [Compound 2.13]	> 100

Molecular target: T4, Human tissue-type plasminogen activator (h t-PA) (Homo sapiens, UniProt P00750)
T4 construct: purchased Boehringer Ingelheim Actilyse
T4 sequence (P00750 36-562): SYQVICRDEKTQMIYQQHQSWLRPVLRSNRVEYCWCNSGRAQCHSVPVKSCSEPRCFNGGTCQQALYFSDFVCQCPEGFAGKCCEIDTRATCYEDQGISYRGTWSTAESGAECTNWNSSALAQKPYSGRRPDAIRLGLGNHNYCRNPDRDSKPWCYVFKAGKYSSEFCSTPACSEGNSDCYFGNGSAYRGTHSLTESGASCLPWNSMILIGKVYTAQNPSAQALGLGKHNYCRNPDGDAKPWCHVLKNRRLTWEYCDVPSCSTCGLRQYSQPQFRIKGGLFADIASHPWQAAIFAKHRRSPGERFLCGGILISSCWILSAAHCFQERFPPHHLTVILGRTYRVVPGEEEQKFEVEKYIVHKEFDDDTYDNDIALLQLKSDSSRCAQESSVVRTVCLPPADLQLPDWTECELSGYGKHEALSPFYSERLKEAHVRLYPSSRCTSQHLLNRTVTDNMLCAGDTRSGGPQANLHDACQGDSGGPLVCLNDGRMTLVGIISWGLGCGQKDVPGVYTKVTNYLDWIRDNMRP
Assay: Inhibition of human tissue-type plasminogen activator (reference enzyme)
Type: biochemical
Conditions: Pefachrome tPA substrate; read-out: Ki h t-PA
Procedure: The equilibrium rates were used to calculate the inhibitor/enzyme dissociation constant (Ki values) by parameter fitting in accordance with the rate equation for competitive inhibition using GraFit (version 4 from Erithacus).
as §3

Compound	Ki [µM]
NCc1ccc(Cl)cc1CNC(=O)[C@@H]1CCCN1C(=O)[C@@H](CC(=O)N1CC[C@@H](N)C1)NS(=O)(=O)Cc1ccccc1 [Compound 2.11]	> 100
NCc1ccc(Cl)cc1CNC(=O)[C@@H]1CCCN1C(=O)[C@@H](CC(=O)N1CC[C@H](N)C1)NS(=O)(=O)Cc1ccccc1 [Compound 2.12]	> 100
NCc1ccc(Cl)cc1CNC(=O)[C@@H]1CNCCN1C(=O)[C@@H](CC(=O)N1CCCCC1)NS(=O)(=O)Cc1ccccc1 [Compound 2.13]	> 40

Molecular target: T5, Human Activated Protein C (h aPC) (Homo sapiens, UniProt P04070)
T5 construct: purchased Enzyme Research Laboratories
T5 sequence (P04070 212-450 limits assumed): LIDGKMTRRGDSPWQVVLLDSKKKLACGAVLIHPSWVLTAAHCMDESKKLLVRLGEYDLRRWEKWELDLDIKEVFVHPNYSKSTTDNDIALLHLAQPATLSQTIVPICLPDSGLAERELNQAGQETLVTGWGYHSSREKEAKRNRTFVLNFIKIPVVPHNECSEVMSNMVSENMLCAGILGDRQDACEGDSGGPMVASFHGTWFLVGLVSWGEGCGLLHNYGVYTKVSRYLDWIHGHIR
T5 sequence (P04070 43-197 partner limits assumed): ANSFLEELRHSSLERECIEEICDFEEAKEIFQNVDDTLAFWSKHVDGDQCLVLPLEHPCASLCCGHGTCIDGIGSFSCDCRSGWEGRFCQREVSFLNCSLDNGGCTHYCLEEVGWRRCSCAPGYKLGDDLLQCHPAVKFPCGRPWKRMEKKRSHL
Assay: Inhibition of human activated protein C (reference enzyme)
Type: biochemical
Conditions: Pefachrome PCa substrate
Procedure: as §1, §2, §3

Compound	Ki [µM]
NCc1ccc(Cl)cc1CNC(=O)[C@@H]1CCCN1C(=O)[C@@H](CC(=O)N1CC[C@@H](N)C1)NS(=O)(=O)Cc1ccccc1 [Compound 2.11]	> 50
NCc1ccc(Cl)cc1CNC(=O)[C@@H]1CCCN1C(=O)[C@@H](CC(=O)N1CC[C@H](N)C1)NS(=O)(=O)Cc1ccccc1 [Compound 2.12]	> 25
NCc1ccc(Cl)cc1CNC(=O)[C@@H]1CNCCN1C(=O)[C@@H](CC(=O)N1CCCCC1)NS(=O)(=O)Cc1ccccc1 [Compound 2.13]	> 30

Molecular target: T6, human Factor Xa (Homo sapiens, UniProt P00742)
T6 construct: human Factor Xa from Enzyme Research Laboratories; purchased Enzyme Research Laboratories
T6 sequence (P00742 235-488 limits assumed): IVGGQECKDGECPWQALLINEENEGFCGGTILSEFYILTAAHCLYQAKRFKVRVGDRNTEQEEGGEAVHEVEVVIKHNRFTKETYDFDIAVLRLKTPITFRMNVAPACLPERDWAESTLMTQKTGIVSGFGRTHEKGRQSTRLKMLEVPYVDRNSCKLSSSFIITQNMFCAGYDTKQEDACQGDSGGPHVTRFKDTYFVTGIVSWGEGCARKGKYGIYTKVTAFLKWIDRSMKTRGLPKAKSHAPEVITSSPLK
T6 sequence (P00742 41-179 partner limits assumed): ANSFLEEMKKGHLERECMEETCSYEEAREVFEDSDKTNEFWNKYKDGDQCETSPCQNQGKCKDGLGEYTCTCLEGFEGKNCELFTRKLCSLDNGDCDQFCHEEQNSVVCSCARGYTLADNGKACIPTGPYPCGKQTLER
Assay: Inhibition constants for human factor Xa, chromogenic substrate assay
Type: biochemical
Conditions: 25° C., Pefachrome FXa substrate, average of at least three determinations; read-out: Ki h FXa
Procedure: as §1
(§4) 200 μL of TBS (0.05 M trishydroxymethylaminomethane; 0.154 M NaCl, 2% ethanol, pH 8.0)
as §2

Compound	Ki [µM]
NCc1ccc(Cl)cc1CNC(=O)[C@@H]1CCCN1C(=O)[C@@H](CC(=O)N1CC[C@@H](N)C1)NS(=O)(=O)Cc1ccccc1 [Compound 2.11]	0.014
NCc1ccc(Cl)cc1CNC(=O)[C@@H]1CCCN1C(=O)[C@@H](CC(=O)N1CC[C@H](N)C1)NS(=O)(=O)Cc1ccccc1 [Compound 2.12]	0.014
NCc1ccc(Cl)cc1CNC(=O)[C@@H]1CNCCN1C(=O)[C@@H](CC(=O)N1CCCCC1)NS(=O)(=O)Cc1ccccc1 [Compound 2.13]	0.0014

Molecular target: T7, Subcomponent "s" of Human Complement Component 1 (h C1s) (Homo sapiens, UniProt P09871)
T7 construct: purchased Calbiochem
T7 sequence (P09871 438-688 limits assumed): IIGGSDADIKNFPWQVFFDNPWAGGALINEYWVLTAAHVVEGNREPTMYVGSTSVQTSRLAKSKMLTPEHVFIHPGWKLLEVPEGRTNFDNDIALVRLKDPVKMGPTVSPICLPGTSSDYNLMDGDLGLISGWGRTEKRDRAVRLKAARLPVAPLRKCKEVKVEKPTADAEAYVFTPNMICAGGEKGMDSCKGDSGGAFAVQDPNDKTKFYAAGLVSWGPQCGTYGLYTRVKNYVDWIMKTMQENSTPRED
T7 sequence (P09871 16-437 partner limits assumed): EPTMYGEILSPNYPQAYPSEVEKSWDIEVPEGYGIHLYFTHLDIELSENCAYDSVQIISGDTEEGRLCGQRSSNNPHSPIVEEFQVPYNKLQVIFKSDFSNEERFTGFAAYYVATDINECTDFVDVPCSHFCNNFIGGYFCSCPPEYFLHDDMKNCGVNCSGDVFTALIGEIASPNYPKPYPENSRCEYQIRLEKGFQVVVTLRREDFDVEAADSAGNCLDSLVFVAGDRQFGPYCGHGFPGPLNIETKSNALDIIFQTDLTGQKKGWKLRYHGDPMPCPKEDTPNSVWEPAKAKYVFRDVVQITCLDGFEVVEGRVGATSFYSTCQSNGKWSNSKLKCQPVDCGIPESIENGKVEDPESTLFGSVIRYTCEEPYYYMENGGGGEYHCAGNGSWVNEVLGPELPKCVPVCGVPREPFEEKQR
Assay: Inhibition of human C1s (reference enzyme)
Type: biochemical
Conditions: S-2314 substrate; read-out: Ki h Cls
Procedure: as §1, §2, §3

Compound	Ki [µM]
NCc1ccc(Cl)cc1CNC(=O)[C@@H]1CCCN1C(=O)[C@@H](CC(=O)N1CC[C@@H](N)C1)NS(=O)(=O)Cc1ccccc1 [Compound 2.11]	> 100
NCc1ccc(Cl)cc1CNC(=O)[C@@H]1CCCN1C(=O)[C@@H](CC(=O)N1CC[C@H](N)C1)NS(=O)(=O)Cc1ccccc1 [Compound 2.12]	> 30
NCc1ccc(Cl)cc1CNC(=O)[C@@H]1CNCCN1C(=O)[C@@H](CC(=O)N1CCCCC1)NS(=O)(=O)Cc1ccccc1 [Compound 2.13]	> 60

Molecular target: T8, Human urinary kallikrein (h uKK) (Homo sapiens, UniProt P06870)
T8 construct: purchased Lee Biosolutions
T8 sequence (P06870 25-262): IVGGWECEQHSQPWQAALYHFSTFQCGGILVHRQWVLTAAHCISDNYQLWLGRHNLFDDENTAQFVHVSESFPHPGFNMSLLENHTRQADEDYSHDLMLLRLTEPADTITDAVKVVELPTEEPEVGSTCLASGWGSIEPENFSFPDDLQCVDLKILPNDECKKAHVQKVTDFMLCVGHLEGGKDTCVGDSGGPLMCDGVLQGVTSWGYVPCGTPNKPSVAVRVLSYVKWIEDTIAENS
Assay: Inhibition of human urinary kallikrein (reference enzyme)
Type: biochemical
Conditions: S-2266 substrate
Procedure: as §1, §2, §3

Compound	Ki [µM]
NCc1ccc(Cl)cc1CNC(=O)[C@@H]1CCCN1C(=O)[C@@H](CC(=O)N1CC[C@@H](N)C1)NS(=O)(=O)Cc1ccccc1 [Compound 2.11]	> 50
NCc1ccc(Cl)cc1CNC(=O)[C@@H]1CCCN1C(=O)[C@@H](CC(=O)N1CC[C@H](N)C1)NS(=O)(=O)Cc1ccccc1 [Compound 2.12]	> 20
NCc1ccc(Cl)cc1CNC(=O)[C@@H]1CNCCN1C(=O)[C@@H](CC(=O)N1CCCCC1)NS(=O)(=O)Cc1ccccc1 [Compound 2.13]	> 20

Molecular target: T9, human factor IIa (human alpha-thrombin) (Homo sapiens, UniProt P00734)
T9 construct: human alpha-thrombin from Enzyme Research Laboratories; purchased Enzyme Research Laboratories
Assay: Inhibition constants for human factor IIa, chromogenic substrate assay
Type: biochemical
Conditions: 25° C., Pefachrome tPA substrate, average of at least three determinations; read-out: Ki h FIIa
Procedure: as §1, §4, §2

Compound	Ki [µM]
NCc1ccc(Cl)cc1CNC(=O)[C@@H]1CCCN1C(=O)[C@@H](CC(=O)N1CC[C@@H](N)C1)NS(=O)(=O)Cc1ccccc1 [Compound 2.11]	0.0059
NCc1ccc(Cl)cc1CNC(=O)[C@@H]1CCCN1C(=O)[C@@H](CC(=O)N1CC[C@H](N)C1)NS(=O)(=O)Cc1ccccc1 [Compound 2.12]	0.0029
NCc1ccc(Cl)cc1CNC(=O)[C@@H]1CNCCN1C(=O)[C@@H](CC(=O)N1CCCCC1)NS(=O)(=O)Cc1ccccc1 [Compound 2.13]	0.0051

Molecular target: T10, Subcomponent "r" of Human Complement Component 1 (h C1r) (Homo sapiens, UniProt P00736)
T10 construct: purchased Calbiochem
T10 sequence (P00736 464-705 limits assumed): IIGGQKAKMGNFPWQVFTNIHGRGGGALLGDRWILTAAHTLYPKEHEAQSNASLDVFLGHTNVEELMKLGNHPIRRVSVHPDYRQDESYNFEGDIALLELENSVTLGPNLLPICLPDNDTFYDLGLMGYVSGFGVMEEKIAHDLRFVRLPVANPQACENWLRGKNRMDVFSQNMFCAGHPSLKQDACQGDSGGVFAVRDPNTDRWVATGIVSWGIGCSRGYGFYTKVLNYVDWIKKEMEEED
T10 sequence (P00736 18-463 partner limits assumed): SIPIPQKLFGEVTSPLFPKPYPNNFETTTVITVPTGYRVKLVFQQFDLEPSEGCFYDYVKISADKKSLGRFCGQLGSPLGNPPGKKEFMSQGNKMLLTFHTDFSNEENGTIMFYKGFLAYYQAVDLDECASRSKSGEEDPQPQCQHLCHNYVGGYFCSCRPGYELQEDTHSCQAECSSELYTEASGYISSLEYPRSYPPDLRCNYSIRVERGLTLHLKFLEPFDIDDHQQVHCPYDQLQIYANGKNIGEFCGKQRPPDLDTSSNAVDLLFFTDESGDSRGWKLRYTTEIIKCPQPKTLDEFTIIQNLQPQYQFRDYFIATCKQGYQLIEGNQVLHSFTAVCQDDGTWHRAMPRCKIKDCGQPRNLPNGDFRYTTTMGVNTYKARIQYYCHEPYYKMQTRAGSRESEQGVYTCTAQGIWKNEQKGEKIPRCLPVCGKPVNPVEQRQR
Assay: Inhibition of human C1r (reference enzyme)
Type: biochemical
Conditions: S-2314 substrate; read-out: Ki h Clr
Procedure: as §1, §2, §3

Compound	Ki [µM]
NCc1ccc(Cl)cc1CNC(=O)[C@@H]1CCCN1C(=O)[C@@H](CC(=O)N1CC[C@@H](N)C1)NS(=O)(=O)Cc1ccccc1 [Compound 2.11]	> 50
NCc1ccc(Cl)cc1CNC(=O)[C@@H]1CCCN1C(=O)[C@@H](CC(=O)N1CC[C@H](N)C1)NS(=O)(=O)Cc1ccccc1 [Compound 2.12]	> 100
NCc1ccc(Cl)cc1CNC(=O)[C@@H]1CNCCN1C(=O)[C@@H](CC(=O)N1CCCCC1)NS(=O)(=O)Cc1ccccc1 [Compound 2.13]	> 30
